# Where two headings read alike, the source gives them in different places.
# How the values were obtained:
# DR5 = assay: Northern blot of DR5 expression in human glioma cell lines after drug treatment; assay type: cell-based; settings: for basal level expression of ~4.4Kb DR5 transcripts after contact with drug: U87MG, A1207, U178 cells, Northern blot
# Procedure: This first set of experiments was designed to determine whether chemotherapeutic agents which are used in treating gliomas could upregulate expression of DR5 in human glioma cell lines. This was apreliminary step to determine if wild type p53, which is found in de novo glioblastomas, could be exploited.
# The human glioblastoma cell lines U87MG, A1207, and U178 were used. The first two of these cell lines are homozygous for wild type p53, while U178 cells express a wild type allele, and an allele with a mutation at codon 271. Samples of cells were treated with one of cis-diamminedichloroplatinum (II) (“CDDP” hereafter), ectoposide (“VP16” hereafter), or chloroethyl)-BCNU. The U87MG and U178 cells received either 0, 1, or 4 ug/ml doses of CDDP; 0, 8, or 16 ug/ml doses of VP16, or 0, 100, or 200 μM doses of BCNU. The A1207 cells received 0, 5, or 20 ug/ml of CDDP, 0, 8 or 16 ug/ml of VP16, or 0, 100, or 200 μM doses of BCNU.
# The cells were treated with the drug at an indicated dosage for 16 hours, after which they were harvested, and total RNA was extracted, following standard methods. Then, 15 ug samples were size fractionated on a 1% agarose formaldehyde gel, and transferred to a nylon membrane. These samples were then probed with a human DR5 cDNA probe, 583 base pairs long. This had beenz prepared via RT-PCR of total RNA of U87MG cells using:
# The hybridization was carried out at 68° C. for 2 hours, followed by washing in 0.5×SSC and 0.1% SDS at 58° C. for 15 minutes. The membranes were then exposed to film at −80° C. with an intensifying screen. In order to confirm that RNA had in fact been loaded, 28SrRNA was stained with methylene blue.
# [1] = system: astrocytes from p53 knockout mice; settings: in vitro; cited from earlier work
# [2] = system: poly (ADP-ribase) polymerase; assay: Western blot for PARP cleavage (activation of effector caspases); assay type: cell-based, human; settings: 24 hours after treatment
# Procedure: The direct assessment of activation of effector caspases was examined by assaying for cleavage of poly (ADP-ribase) polymerase, or “PARP”, after treatment with combinations of a DNA damaging agent (CDDP or VP16), TRAIL, DR5-Fc or Fc, and the caspase inhibitor, Z-Asp-CH2-DCB. This was determined via Western blotting, where 20 ug of clarified protein lysate was loaded onto SDS gels 24 hours after treatment, electrophoresed, transferred to membranes, and then probed with monoclonal antibodies against PARP. Full length PARP has a molecular weight of about 116 kilodalton and, when cleaved, one fragment is 85 kilodaltons.
# U87MG cells [3] = assay: Subcutaneous U87MG tumors in nude mice, Example 7; assay type: in vivo; settings: single agent
# Procedure: To test this, U87MG cells (2×10^6) were suspended in 0.1 ml PBS, and then injected subcutaneously into the right flank of 4-5 week old female nude mice, of BALB/C background. Tumors were permitted to become established, and then grow for 20 days, reaching an approximate innate volume of 150 mm^3. Then, either CDDP (3 mg/kg), or sterile normal saline was administered intraperitoneally on days 20,21,22,30,31, and 32. Mice also received either fusion protein FLAG-TRAIL (200 ug), or a mock control. The FLAG-TRAIL fusion protein described by Degli-Esposti, et al., J. Exp. Med 186: 1165-1170 (1997), incorporated by reference, was prepared via standard recombinant methods. Mock controls were prepared by carrying out the same protocol used to produce the FLAG-TRAIL, but without a vector which encoded the fusion protein. Cell lysate was used as the control. The FLAG-TRAIL or control was administered via intraveneous and intraperitoneal injections 16 hours and 24 hours following CDDP treatment, i.e., on days 21,22,23, 31,32 and 33. Growth of the tumors was measured at 2 day intervals, in accordance with Huang, et al., J. Biol Chem 272: […] (1997).
# U87MG cells [4] = assay: MTT survival assay; settings: for cell viability, single agent: TRAIL 0.1 ug/ml, CDDP 4 ug/ml, VP16 16 ug/ml, 24 hours
# Procedure: (§1) Experiments were then carried out to determine if combining TRAIL with the damaging agents would enhance cytotoxicity. The method employed to determine if combining TRAIL with the damaging agents would enhance cytotoxicity was the 3-(4,5-dimethylthiazol-2-yl)-2,5-diphenyl tetrazolum bromide (“MTT”) survival assay, described by Mosmann, et al., J. Immunol. […] Cells (U87MG) were plated, at 1×10^4 cells/well in 96 well microtiter plates overnight.
# (§2) The cytotoxic effect of TRAIL, in combination with one of the DNA damaging agents discussed supra, i.e., CDDP, VP16, as BCNU was tested, by either adding TRAIL alone, the drug alone, or TRAIL plus the drug, in a two component combination, with DR5-Fc, referred to supra, or with Fc. The dosages were as provided supra.
# U87MG cells [5] = assay: Apoptosis of U87MG cells (TUNEL, flow cytometry) with caspase inhibitor; assay type: cell-based, human
# Procedure: In these experiments, the mechanism by which the cell death caused by combination of TRAIL and DNA damaging agents was studied further. U87MG cells were plated overnight, and then treated with either TRAIL alone (0.1 ug/ml), CDDP alone (4 ug/ml) VP16 alone (16 ug/ml) TRAIL and CDDP, at the recited doses, or TRAIL plus VP16, at the recited doses. The cells were treated for 44 hours, collected, fixed in 2% formaldehyde, and permeabilized in 0.05% Tween-20 in bovine serum albumin solution.
# The cells were then incubated with TUNEL (terminal deoxynucleotidyl transferase mediated nick end labeling) solution, at 37° C. for 1 hour. Those cells which stained positively with fluorescein were analyzed via flow cytometry. The morphology of the dead cells was typical of apoptosis.
# TRAIL is known to induce apoptosis through activation of effector caspases. See, e.g., Wu, et al., Nature Genet 17: 141-143 (1997); Wiley et al., Immunity 3: 673-682 (1995); Pitti, et al., J. Biol Chem 271: 12687-12690 (1996); Pan, et al., Science 277: 815-818 (1997); Sheridan, et al., Science 277: 818-821 (1997); Walczak, et al., EMBO J. 16: 5386-5397 (1997).
# U87MG cells [6] = system: U87MG cells
# Procedure: as §1, §2
molecule,measurement,setting,value
"O=NN(CCCl)C(=O)NCCCl [BCNU, 1,3 bis (2-chloroethyl)-1-nitrosourea]",basal level expression of ~4.4Kb DR5 transcripts after contact with drug,DR5,lesser effect
same,sensitivity of p53 knockout astrocytes compared with wild type astrocytes,[1],more sensitive
"N.N.[Cl][Pt][Cl] [CDDP, cis-diamminedichloroplatinum (II)]",basal level expression of ~4.4Kb DR5 transcripts after contact with drug,DR5,increased significantly
same,time of contact needed for induction of DR5,DR5; glioblastoma cell lines,16 h
same,PARP cleavage product (85 kilodaltons),[2],not
same,tumor growth compared with combined drugs,U87MG cells [3],grew significantly faster
same,"cell viability, single agent",U87MG cells [4],sublethal
"COc1cc([C@@H]2c3cc4c(cc3[C@@H](O[C@@H]3O[C@@H]5CO[C@@H](C)O[C@H]5[C@H](O)[C@H]3O)[C@H]3COC(=O)[C@H]23)OCO4)cc(OC)c1O [VP16, ectoposide]",basal level expression of ~4.4Kb DR5 transcripts after contact with drug,DR5,increased significantly
same,PARP cleavage product (85 kilodaltons),[2],not
same,"cell viability, single agent",U87MG cells [4],sublethal
O=C(O)C[C@H](NC(=O)OCc1ccccc1)C(=O)COC(=O)c1c(Cl)cccc1Cl [Z-Asp-CH2-DCB],"apoptosis on treatment with TRAIL, one of CDDP or VP16, and the caspase inhibitor",U87MG cells [5],did not induce apoptosis
same,effect on PARP cleavage elicited by TRAIL and CDDP or VP16,[2],inhibited
same,effect on synergistic cytotoxicity of TRAIL plus DNA damaging agent,U87MG cells [4]; added to TRAIL plus CDDP or VP16,at levels obtained for single drugs
DR5-Fc: a soluble fusion protein that competes for TRAIL,effect on PARP cleavage elicited by TRAIL and CDDP or VP16,[2],inhibited
same,effect on synergistic cytotoxicity of TRAIL plus DNA damaging agent,U87MG cells [6],abolished
extracellular domain of DR4 expressed as a fusion protein with Fc: extracellular domain of DR4 expressed as a fusion protein with Fc,effect on synergistic cytotoxicity of TRAIL plus DNA damaging agent,U87MG cells [6],same elimination of synergistic cytotoxicity
TRAIL: tumor necrosis factor related apoptosis inducing ligand; given in vivo as fusion protein FLAG-TRAIL (protein) TSEETISTVQEKQQNISPLVRERGPQRVAAHITGTRGRSNTLSSPNSKNEKALGRKINSWESSRSGHSFLSNLHLRNGELVIHEKGFYYIYSQTYFRFQEEIKENTKNDKQMVQYIYKYTSYPDPILLMKSARNSCWSKDAEYGLYSIYQGGIFELKENDRIFVSVTNEHLIDMDHEASFFGAFLVG,PARP cleavage product (85 kilodaltons),[2],not
same,tumor growth compared with combined drugs,U87MG cells [3],grew significantly faster
same,"cell viability, single agent",U87MG cells [4],no effect on cell viability
same,reduction of amount of TRAIL necessary for efficacy in combination versus alone,U87MG cells [4]; in combination with DNA damaging agent,about 100 fold
